Results on 8 compounds are retold here after publication PMC5656517 (European journal of pharmaceutical sciences : official …, 2017).

In data set [1] the test system is one or more cytochrome P450 enzymes (CYP1A2, 2A6, 2B6, 2C8, 2C9, 2C19, 2D6, 2E1, 3A4); isoform not specified per value. The experiment in a line: in vitro. Particulars: human, pH 7.4.
For data set [2], the target named is T1, CYP3A4 (Homo sapiens, UniProt P08684). Particulars: recombinant enzymes; ref Kent et al., (2002); cited from earlier work.
T1 sequence (P08684 whole entry): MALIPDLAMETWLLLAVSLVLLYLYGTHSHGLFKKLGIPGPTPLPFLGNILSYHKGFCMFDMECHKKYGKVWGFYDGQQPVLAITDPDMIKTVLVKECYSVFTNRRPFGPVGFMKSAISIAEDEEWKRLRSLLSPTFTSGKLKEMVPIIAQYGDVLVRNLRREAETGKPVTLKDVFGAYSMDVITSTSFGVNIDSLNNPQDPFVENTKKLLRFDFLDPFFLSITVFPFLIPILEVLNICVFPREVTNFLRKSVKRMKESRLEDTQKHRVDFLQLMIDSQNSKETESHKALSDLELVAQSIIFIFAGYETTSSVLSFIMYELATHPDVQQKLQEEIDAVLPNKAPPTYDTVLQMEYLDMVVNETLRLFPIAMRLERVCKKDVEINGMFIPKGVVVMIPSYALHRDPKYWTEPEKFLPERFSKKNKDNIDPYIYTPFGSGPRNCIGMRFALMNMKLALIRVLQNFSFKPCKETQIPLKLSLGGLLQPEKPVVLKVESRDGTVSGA
Data set [3] addresses T2, CYP2B6 (Homo sapiens, UniProt P20813).
T2 sequence (P20813 1-491): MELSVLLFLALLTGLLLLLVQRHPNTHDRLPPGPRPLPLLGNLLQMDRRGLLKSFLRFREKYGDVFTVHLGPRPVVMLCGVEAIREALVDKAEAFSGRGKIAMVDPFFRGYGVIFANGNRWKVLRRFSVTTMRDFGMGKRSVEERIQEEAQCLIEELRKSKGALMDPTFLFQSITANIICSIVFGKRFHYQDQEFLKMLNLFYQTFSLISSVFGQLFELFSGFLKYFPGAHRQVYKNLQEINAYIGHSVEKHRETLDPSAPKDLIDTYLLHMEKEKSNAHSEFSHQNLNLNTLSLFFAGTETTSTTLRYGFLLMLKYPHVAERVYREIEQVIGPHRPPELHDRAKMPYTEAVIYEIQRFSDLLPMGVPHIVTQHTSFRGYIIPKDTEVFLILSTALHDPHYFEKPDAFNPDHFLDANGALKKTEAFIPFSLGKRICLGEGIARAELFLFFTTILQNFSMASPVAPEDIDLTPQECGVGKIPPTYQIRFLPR
Particulars: recombinant enzymes; ref Kent et al., (2002); cited from earlier work.

For data set [4], the target named is CYP2C9 (Homo sapiens, UniProt P11712). The conditions noted are these: recombinant enzymes; ref Kent et al., (2002); cited from earlier work.
Chain of CYP2C9 (P11712 whole entry): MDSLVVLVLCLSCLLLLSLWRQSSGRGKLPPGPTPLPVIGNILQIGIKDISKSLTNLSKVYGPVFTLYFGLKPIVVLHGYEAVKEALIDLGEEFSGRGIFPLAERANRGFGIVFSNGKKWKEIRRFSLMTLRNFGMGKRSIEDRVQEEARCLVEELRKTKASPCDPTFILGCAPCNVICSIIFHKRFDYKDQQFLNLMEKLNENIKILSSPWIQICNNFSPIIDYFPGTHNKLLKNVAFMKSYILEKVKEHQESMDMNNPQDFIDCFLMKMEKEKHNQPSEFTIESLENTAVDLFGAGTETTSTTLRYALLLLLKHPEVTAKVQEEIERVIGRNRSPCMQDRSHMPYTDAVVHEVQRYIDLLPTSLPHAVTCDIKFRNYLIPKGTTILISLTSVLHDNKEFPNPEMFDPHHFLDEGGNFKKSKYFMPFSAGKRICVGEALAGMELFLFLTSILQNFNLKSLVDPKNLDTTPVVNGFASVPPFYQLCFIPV
The target of data set [5] is T1, CYP3A4.
Data set [6] addresses T2, CYP2B6. The experiment in a line: Single concentration. It is filed as in vitro ADME. Particulars: human liver microsomes.
The subject of data set [7] is CYP2C. Nature of the data set: Single concentration. It is filed as in vitro ADME. The conditions noted are these: human liver microsomes. (In general: Liver microsomes are a subcellular fraction often used to study metabolism.)
The target in data set [8] is CYP2D6 (Homo sapiens, UniProt P10635). The experiment in a line: Single concentration. It is filed as in vitro ADME. Particulars: human liver microsomes.
Chain of CYP2D6 (P10635 whole entry, canonical isoform): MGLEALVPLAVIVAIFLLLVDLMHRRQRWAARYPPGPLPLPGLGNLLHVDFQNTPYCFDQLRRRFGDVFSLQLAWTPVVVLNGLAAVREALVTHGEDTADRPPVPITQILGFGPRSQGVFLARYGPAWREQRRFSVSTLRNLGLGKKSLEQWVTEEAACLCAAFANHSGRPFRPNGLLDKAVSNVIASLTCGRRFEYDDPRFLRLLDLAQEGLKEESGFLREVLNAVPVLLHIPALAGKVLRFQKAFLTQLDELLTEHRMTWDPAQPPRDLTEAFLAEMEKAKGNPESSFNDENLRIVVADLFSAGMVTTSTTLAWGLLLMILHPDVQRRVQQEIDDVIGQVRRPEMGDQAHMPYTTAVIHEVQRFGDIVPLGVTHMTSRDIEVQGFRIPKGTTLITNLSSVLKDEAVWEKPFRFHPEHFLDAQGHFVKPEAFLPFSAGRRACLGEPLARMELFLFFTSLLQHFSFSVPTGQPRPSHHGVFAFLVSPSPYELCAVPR
The test system of data set [9] is cytochrome P450 enzymes. The experiment in a line: Single concentration. Particulars: 10 µM, 9 isoforms.

By inhibition is commonly meant how much of the control response was suppressed. Read a high inhibition as strong suppression. In turn, `CC1(C)[C@@H](O)CC[C@]2(C)[C@H]3C(=O)C=C4[C@@H]5C[C@@](C)(C(=O)O)CC[C@]5(C)CC[C@@]4(C)[C@]3(C)CC[C@@H]12` [18β-glycyrrhetinic acid] had an inhibition at 10 min, 10 µM in data set [1] above 50%.
`CC1(C)C=Cc2c(ccc3c2OC[C@@H](c2ccc(O)cc2O)C3)O1` [Glabridin, glabridin]: in data set [2], the “inhibition of CYP3A4, in words” value is recorded as “irreversibly inhibited”. In data set [3], the “inhibition of CYP2B6, in words” value is listed as “irreversibly inhibited”. In addition, the “inhibition of CYP2C9, in words” value in data set [4] is “reversibly inhibited”. In data set [1], the inhibition at 10 min, 10 µM is above 50%. Also, the “mode of CYP3A4 inhibition, in words” value in data set [5] was “competitively inhibited”. In addition, the “inhibition of CYP2B6 at 10 µM, in words” value in [6] was “not inhibition”.
With `COc1c(CC=C(C)C)c(O)cc2oc(=O)c(-c3ccc(O)cc3O)cc12` [Glycycoumarin, glycycoumarin], in [1], the inhibition at 10 min, 10 µM is above 50%. The “inhibition of CYP2B6 at 10 µM, in words” value in data set [6] is listed as “inhibited”. For the same compound, the “inhibition of CYP2C at 10 µM, in words” value in data set [7] was “inhibited”. The “inhibition of CYP2D6 at 10 µM, in words” value in [8] is given as “did not observe significant inhibition”.
Regarding `O=C(/C=C/c1ccc(O)cc1)c1ccc(O)cc1O` [Isoliquiritigenin, isoliquiritigenin], in data set [5], the “mode of CYP3A4 inhibition, in words” value was “competitively inhibited”.
Consider `O=C(/C=C/c1ccc(O[C@@H]2O[C@H](CO)[C@@H](O)[C@H](O)[C@H]2O)cc1)c1ccc(O)cc1O` [Isoliquiritin, isoliquiritin], for which, in [9], the “inhibition of any cytochrome P450 enzyme, in words” value is given as “did not inhibit”.
Take `COc1c(CC=C(C)C)c(O)cc2c1C[C@H](c1ccc(O)c(CC=C(C)C)c1O)CO2` [Licoricidin, licoricidin]: the inhibition at 10 min, 10 µM in data set [1] is above 50%. Further, the “mode of CYP3A4 inhibition, in words” value in [5] is listed as “competitively inhibited”. In addition, in data set [6], the “inhibition of CYP2B6 at 10 µM, in words” value was “inhibited”.
isoliquiritin apioside: in data set [9], the “inhibition of any cytochrome P450 enzyme, in words” value is reported as “did not inhibit”.
Same read-out and setting: as for liquiritin apioside, the entry is “did not inhibit”.
